Test results taken from patent US20100016421A1, “METHODS FOR DETERMINING SENSITIVITY TO AMINOFLAVONES” (priority 2008, published 2010).
Like-named read-outs stand apart in the source and are kept apart here.

Assays:
BT 20 = assay: MTT assay, BT 20 breast cancer cell line; format: cell-based; details: Homo sapiens; BT 20, mean of three independent MTT experiments; read-out: AF IC50
Procedure: (§1) The inhibitory concentration 50% were determined by MTT assay and following the NCI DTP in vitro testing procedures (http://dtp.nci.nih.gov/branches/btb/ivclsp.html). Three independent MTT in vitro tumor cell growth inhibition experiments were conducted and a mean IC50 value generated as shown in Table 4.

MCF-7 HER2-18 = assay: MTT assay, MCF-7 HER2-18 cell line; format: cell-based, human; details: for IC50: Homo sapiens
Procedure: (§2) The breast cancer cell lines shown in Table 2 were screened to determine the localization of the aryl hydrocarbon receptor (AhR) in accordance with the techniques discussed above. MTT assays were conducted to measure cell death on various breast cancer cell lines.
as §1

MCF10A = assay: MTT assay, MCF10A normal breast cell line; format: cell-based, human; details: for IC50: Homo sapiens, MCF-10A
Procedure: as §2, §1

[1] = test system: ER-negative, or “triple-negative,” or basal B breast cancer cell lines; assay: Sensitivity to aminoflavone after HDAC inhibitor pre-treatment; format: cell-based; details: Homo sapiens
HCC1937 = assay: MTT assay, HCC1937 breast cancer cell line; format: cell-based; details: Homo sapiens
From the text: (§3) AhR localization correlates with cytotoxic activity of AFP464, as discussed above. […] The growth curves for all three cell lines resulting from 5 day continuous exposure of the cells to AFP464 in 96-well plates and the detection of cell growth by conversion of methyltetrazolium into formazan by viable cells (MTT assay) are shown. All cell lines in FIG. 3 have defects in the BRCA tumor suppressor genes responsible for very aggressive forms of hereditary breast and ovarian cancer. MX-1 have BRCA1 deletions and BRCA2 mutations, HCC1937 are BRCA1 mutant and completely defective, IGROV1 are defective for BRCA2 (±).
as §1

T47D = assay: MTT assay, T47D breast cancer cell line; format: cell-based, human; details: for IC50: Homo sapiens
Procedure: as §2, §1

Hs578t = assay: MTT assay, Hs578t breast cancer cell line; format: cell-based, human
Procedure: as §1

MCF-7 = assay: MTT assay, MCF-7 breast cancer cell line; format: cell-based, human; details: for IC50: Homo sapiens, MCF7
Procedure: as §2, §1

[2] = test system: SKBR3, T47D, MCF-7, MCF-7 Tam1, and MCF-7 Her2-18 cell lines; assay: MTT assay, luminal type cell lines (summary); format: cell-based; details: Homo sapiens; range over luminal type cell lines; read-out: AF IC50 concentrations
Procedure: as §1
(§4) The SKBR3, T47D, MCF-7, MCF-7 Tam1, and MCF-7 Her2-18 cell lines are all of a luminal type gene cluster. […] Based on previous NCI cell line screen results discussed above, ER-negative tumors were thought to be resistant to aminoflavone. […] Thus, the gene profile relating to ER status alone may not predict the sensitivity of the tumor to treatment with AF. AFP464 is not only effective in ER-positive breast cancer cells, which are always of luminal type histologies, but are also effective in the basal A subtype of ER-negative breast cancers.

MCF-7 TAM1 = assay: MTT assay, MCF-7 TAM1 cell line; format: cell-based, human; details: for IC50: Homo sapiens, MCF7:TAM1
Procedure: as §2, §1

SKBR3 = assay: MTT assay, SKBR3 breast cancer cell line; format: cell-based; details: Homo sapiens, SK-BR-3; SKBR3, mean of three independent MTT experiments; read-out: AF IC50
Procedure: as §1

MDA-MB-231 = assay: MTT assay, MDA-MB-231 breast cancer cell line; format: cell-based, human; details: for IC50: Homo sapiens
Procedure: as §2, §1

MDA-MB-468 = assay: MTT assay, MDA-MB-468 breast cancer cell line; format: cell-based; details: Homo sapiens; MDA-MB-468, mean of three independent MTT experiments; read-out: AF IC50
Procedure: as §1

[3] = test system: HCC1937, BT 20, MDA-MB-468, and SKBR3 ER-negative tumor cells; assay: MTT assay, sensitive ER-negative cell lines (summary); format: cell-based; details: Homo sapiens; range over sensitive ER-negative cell lines; read-out: AF IC50 concentrations
Procedure: as §1, §4

γ-H2AX foci in T47D = assay: Immunofluorescence of phosphorylated γ-H2AX, T47D; format: cell-based, human
From the text: (§5) The phosphorylated γ-H2AX is an indicator of a DNA-damage response in cells.

OVCAR-3 = assay: Cytotoxicity, OVCAR-3 ovarian cancer cell line; format: cell-based; details: Homo sapiens
From the text: (§6) Similarly, the ovarian cancer cell lines shown in Table 3 were screened to determine the localization of the Aryl hydrocarbon receptor (AhR). As shown below, and further illustrated in FIGS. 2 and 3, all cell lines where the AhR is localized predominantly in the cytoplasm (e.g. OVCAR-3 and IGROV-1) were more sensitive to treatment with AFP464 than tumor cells where the AhR is localized predominantly in the nucleus (e.g., OVCAR-8).

ER-positive cell lines = details: NCI 60 screen, read-out: sensitivity (order of magnitude); cited from earlier work
A2780 = assay: Cytotoxicity, A2780 ovarian cancer cell line; format: cell-based; details: Homo sapiens
From the text: as §6

[4] = test system: γ-H2AX foci in MDA-MB-231; assay: Immunofluorescence of phosphorylated γ-H2AX, MDA-MB-231; format: cell-based, human
From the text: as §5

AG6000 = assay: Cytotoxicity, AG6000 ovarian cancer cell line; format: cell-based; details: Homo sapiens
From the text: as §6

MX-1 = assay: MTT assay, MX-1 triple negative breast cancer cell line; format: cell-based; details: Homo sapiens, MX1, 120 h, MX-1, 5 day continuous exposure
From the text: as §3

[5] = test system: human tumor xenograft MDA-MB-231; assay: MDA-MB-231 subcutaneous xenograft in nude mice
γ-H2AX foci in MCF10a = assay: Immunofluorescence of phosphorylated γ-H2AX, MCF10a; format: cell-based, human
From the text: as §5

Maximum tolerated dose = details: mouse, in vivo, iv; intravenously
Procedure: Next, the treatment and data evaluation will be discussed. […] The maximum tolerated dose (MTD) for AFP464 was determined prior to initiation of the experiment as 75 mg/kg/d intravenously. […]. […] AFP464 was given on days 1, 3, 5, 15, 17, and 19.

γ-H2AX foci in MCF-7 = assay: Immunofluorescence of phosphorylated γ-H2AX, MCF-7; format: cell-based, human
From the text: as §5

[6] = test system: γ-H2AX foci in MCF-7 HER2-18; assay: Immunofluorescence of phosphorylated γ-H2AX, MCF-7 HER2-18; format: cell-based, human
From the text: as §5

IGROV-1 = assay: Cytotoxicity (MTT), IGROV-1 ovarian cancer cell line; format: cell-based; details: Homo sapiens
From the text: as §6, §3

ADDP = assay: Cytotoxicity, ADDP ovarian cancer cell line; format: cell-based; details: Homo sapiens
From the text: as §6

[7] = test system: γ-H2AX foci in MCF-7 TAM1; assay: Immunofluorescence of phosphorylated γ-H2AX, MCF-7 TAM1; format: cell-based, human
From the text: as §5

CYP1B1 = assay: Real time PCR of CYP1B1 expression, MDA-MB-231
CYP1A1 = assay: Real time PCR of CYP1A1 expression, MDA-MB-231
OVCAR-8 = assay: Cytotoxicity, OVCAR-8 ovarian cancer cell line; format: cell-based; details: Homo sapiens
From the text: as §6

ERα in MDA-MB-231 = assay: Western blot of ERα induction, MDA-MB-231; format: cell-based, human; details: MDA-MB-231, 60 hours at […] and 13.5 μM
Procedure: Lane 1 of each of FIGS. 4A and 4B is a control in which the respective cells were treated with DMSO.

[8] = in mice; cited from earlier work
[9] = mean of three independent MTT experiments, read-out: AF IC50
[10] = MDA-MB-231, SAHA for 48 hours followed by AFP464 for 6 hours
[11] = MDA-MB-231, SAHA for 48 hours followed by AFP464 for 24 hours

Cc1c(F)c(N)c2c(=O)cc(-c3ccc(N)c(F)c3)oc2c1F [AF, aminoflavone]
IC50 (BT 20): 20 nM | IC50 (MCF-7 HER2-18; MCF-7 Her2-18, mean of three independent MTT experiments, read-out: AF IC50): 20 nM | IC50 (MCF10A; [9]): 3000 nM | IC50 [1]: ~1000 nM | IC50 (HCC1937; HCC1937, mean of three independent MTT experiments, read-out: AF IC50): 10 nM | IC50 (T47D; [9]): 14 nM | IC50 (Hs578t; Homo sapiens, Hs-578T, Hs578t, mean of three independent MTT experiments, read-out: AF IC50): 20000 nM | IC50 (MCF-7; MCF-7, mean of three independent MTT experiments, read-out: AF IC50): 16 nM | IC50 [2]: 16 to 20 nM | IC50 (MCF-7 TAM1; MCF-7 Tam1, mean of three independent MTT experiments, read-out: AF IC50): 25 nM | IC50 (SKBR3): 16 nM | IC50 (MDA-MB-231; MDA-MB-231, mean of three independent MTT experiments, read-out: AF IC50): 25000 nM | IC50 (MDA-MB-468): 12 nM | IC50 [3]: 10 to 20 nM

Cc1c(F)c(N)c2c(=O)cc(-c3ccc(NC(=O)[C@@H](N)CCCCN)c(F)c3)oc2c1F [AFP464]
IC50 (MCF-7 HER2-18; MCF-7 HER2-18, MTT, read-out: IC50): 20 nM | IC100 (MCF-7 HER2-18; MCF-7 HER2-18, MTT): 375 nM | γ-H2AX Foci (γ-H2AX foci in T47D): yes | IC50 (OVCAR-3): 252 nM | IC50 (MCF10A; MTT, read-out: IC50): 3000 nM | IC100 (MCF10A; MTT): 9 µM | IC50 (HCC1937; 120 h, HCC1937, 5 day continuous exposure, MTT, read-out: IC50): 10 to 200 nM | IC50 (ER-positive cell lines): ~10 nM | IC50 (A2780): 5000 nM | γ-H2AX Foci [4]: no | IC50 (T47D; MTT, read-out: IC50): 14 nM | IC100 (T47D; MTT): 20 nM | IC50 (MCF-7; MCF-7, MTT, read-out: IC50): 16 nM | IC100 (MCF-7; MCF-7, MTT): 300 nM | IC50 (AG6000): > 10000 nM | IC50 (MX-1): 30000 nM | % Growth Inhibition [d29] ([5]; AFP464 35 mg/kg i.v. Day 1, 3, 5, 15, 17, 19): 23% | Opt. Test/Control % [d] ([5]; AFP464 35 mg/kg i.v. Day 1, 3, 5, 15, 17, 19, optimum d26): 77 [d26] % | % Growth Inhibition [d29] ([5]; AFP464 70 mg/kg i.v. Day 1, 3, 5, 15): 15% | Opt. Test/Control % [d] ([5]; AFP464 70 mg/kg i.v. Day 1, 3, 5, 15, optimum d28): 85 [d28] % | γ-H2AX Foci (γ-H2AX foci in MCF10a): no | IC50 (MCF-7 TAM1; MCF-7 TAM1, MTT, read-out: IC50): 25 nM | IC100 (MCF-7 TAM1; MCF-7 TAM1, MTT): 200 nM | MTD (Maximum tolerated dose): 75 mg/kg/day | γ-H2AX Foci (γ-H2AX foci in MCF-7): yes | IC50 (MDA-MB-231; MDA-MB-231, MTT, read-out: IC50): 25000 nM | IC100 (MDA-MB-231; MDA-MB-231, MTT): >100 µM | γ-H2AX Foci [6]: yes | IC50 (IGROV-1; IGROV-1): 420 nM | IC50 (IGROV-1; IGROV-1, 120 h, IGROV1, 5 day continuous exposure, MTT): 10 to 200 nM | IC50 (ADDP): 2500 nM | γ-H2AX Foci [7]: yes | expression of RNA for CYP1B1 (CYP1B1; [10]): increased expression | expression of RNA for CYP1B1 (CYP1B1; [11]): little expression | expression of RNA for CYP1A1 (CYP1A1; [10]): increased expression | expression of RNA for CYP1A1 (CYP1A1; [11]): little expression | IC50 (OVCAR-8): 13000 nM

O=C(CCCCCCC(=O)Nc1ccccc1)NO [SAHA, suberoylanilide hydroxamic acid, reference compound]
ERα induction (ERα in MDA-MB-231): increases | MTD [8]: 175 mg/kg/day | IC100 (Hs578t; SAHA in Hs578T): 100 µM | Opt. Test/Control % [d] ([5]; Vorinostat 50 mg/kg p.o. Day −3 to −1, 12-14, optimum d26): 71 [d26] % | IC100 (MDA-MB-231; SAHA in MDA-MB-231): 13.5 µM
